Test results: US20150098997A1, “Methods and Compositions for Treating Attention Deficit Hyperactivity Disorder, Anxiety and Insomnia Using Dexmedetomidine Transdermal Compositions” (Teikoku Pharma USA, Inc., priority 2013, published 2015)

Test: Solubility of dexmedetomidine in adhesives and solubility enhancers
Type: physicochemical

solubility of dexmedetomidine (in Duro-Tak 87-2979 (acid/hydroxyl functionalized acrylate adhesive)): less than 2% | solubility of dexmedetomidine (in Duro-Tak 387/87-2353 (acid functionalized acrylate adhesive)): 10-15% | solubility of dexmedetomidine (in hydroxyl functionalized acrylate polymer): less than 1% | solubility of dexmedetomidine (in lauryl lactate): 5 to 10% | solubility of dexmedetomidine (in levulinic acid): ~60% | solubility of dexmedetomidine (in oleic acid): ~40% | solubility of dexmedetomidine (in propylene glycolmonolaurate): 5 to 10%
SMILES: Cc1cccc([C@H](C)c2cnc[nH]2)c1C [dexmedetomidine, Dexmedetomidine]
